Laboratory results from US4276890A, “Tobacco smoking inhibitor” (priority 1979, dated 1981).
Several values for one entry are separate records, joined by “and”; a condition that tells them apart may be missing. Equal entries are not always repeated. Entries after “also recorded” stand apart in the source; their conditions may differ.

Legend:
[1] = per day; cited from earlier work
[2] = system: hexobarbital-induced sleeping time; settings: 300 to 500 mg per kg; cited from earlier work
mice = settings: cited from earlier work
[3] = Dissolution in the mouth of gamma pyrone particles dispersed in chewing gum; format: physicochemical; settings: particles 300 to 400 mesh
Protocol: The formation of a chewing gum for administering a gamma pyrone according to the invention is next described. Crystaline ethyl maltol was ground and sieved to 300 mesh. The ground particles acquired a static charge, tending to float upwards. In practice, it was possible to sieve the particles upwards, collecting only those which passed through the 300 mesh screen.
The ground particles were mixed at 45° C. with a plastic chewing gum base, until evenly distributed throughout the mass. The chewing gum base was selected to be free of amino acids, tannins and other flavoring elements capable of combining with gamma pyrone to yield bitter off flavors. The rate of release of gamma pyrone into the oral cavity is a function of the rate of solution of the gamma pyrone as the gum is chewed. The rate of solution is controlled by the size of the gamma pyrone particles dispersed in the gum. Optimally, for ethyl maltol, particles in the size range from 300 to 400 mesh when dispersed in such a matrix, are dissolved in the mouth in about 30 minutes. The gamma pyrone must be dispersed throughout the gum in particulate form to provide the desired sustained release effect, particles […] than 300-400 mesh dissolved more slowly, so that the incremental dose was delivered more slowly. […] particles dissolved more rapidly than desired so that the dose was delivered in an undesirably short time. […]

rat brain cortex slices = settings: in vitro; cited from earlier work
smoking habit of smokers = assay: Single dose response in smokers (Example 3); format: in vivo, human (volunteer smokers)
Protocol: The effect of a single dose of ethyl maltol in the range from 100 mg to 1,200 mg was tested on thirty volunteer subjects who were smokers. As a control, an additional ten smokers were given an inert placebo, a similar candy or gum laced with ascorbic acid and citric acid to impart a medicinal flavor. […] The threshold of effectiveness varied with the individual's age, sex, weight, smoking history, and habits. […] These studies established the existence of a critical threshold dose level below which the effectiveness of ethyl maltol as a tobacco smoking inhibitor was not observed. In subsequent tests where the gamma pyrone was administered in a dose series extending over several days, daily doses of less than about 300 mg per day were similarly ineffective.

[4] = system: cigarette consumption of smokers; assay: Multi-day dose course in individual smokers (Example 4, Table 1): tobacco consumption; format: in vivo, human (volunteer smokers)
Text: Smoking behavior is complex and includes cigarette, pipe and cigar smoking. Both from the standpoint of habituation and of health hazard, cigarette smoking is considered to be the most serious. It is contemplated that the treatment method described herein will be effective to inhibit all forms of smoking behavior and combinations thereof, involving the consumption of tobacco. For convenience, the ensuing discussion focuses on cigarette smoking, as exemplary of smoking behavior in general. Tobacco consumption is a function the number of cigarettes smoked and the proportion of each cigarette smoked. Reduction of consumption is measured by comparison with a smoker's pretreatment consumption rate. All data used herein are expressed as percent reduction, i.e., the differential between pretreatment and current smoking consumption rate divided by the pretreatment rate, times 100. All rates are calculated to take into account both the number of cigarettes smoked and the proportion of each smoked.
Extensive tests were made of individual smokers of varied age, smoking history, and sex in a course of treatment extending over several days. All smokers tested in this experiment were initially naive as to the purpose of the test or the expected effect. The subjects volunteered for the tests after being told that the material is safe according to FDA food additive standards and that they were to report all observed effects. So far as can be ascertained none of the subjects deduced the true purpose of the test until the effects were made obvious by substantial involuntary reduction in their smoking activities. Subjects were interviewed before the dosage course to insure that they were in general good health. Interviews were also conducted during and after the dosage course, at least every third day to ascertain what physiological or psychological effects were experienced. No side effects were noted during or after the treatment cycle.
Several individuals from the original test series volunteered for additional testing. In all such instances, a treatment free period of three weeks to three months was interposed between tests.
Subjects are identified by number. The original, naive tests are identified by the letter "a" following the subjects' number. Subsequent test series are identified sequentially by "b" and "c", where appropriate.
All subjects except nos. 10 and 11 received ethyl maltol in a chewing gum with instructions to chew for at least 10 minutes, and preferably 15 minutes. Subjects 10 and 11 received ethyl maltol in tablet form, rather than by sustained release in the mouth.

[5] = system: convulsions produced by pentylenetetrazole or strychnine; settings: 300 to 500 mg per kg; cited from earlier work
non-smoker volunteers = assay: Non-smoker control volunteers on same regimen; format: in vivo, human (non-smokers); settings: five non-smokers; in excess of 500 mg per day for several days
Protocol: As a control, five non-smoker volunteers were tested according to the same regimen, receiving varying quantities of ethyl maltol in excess of 500 mg. per day for periods of several days.

[6] = cited from earlier work
[7] = chewing gum, 600 mg/day, 1 day, subject 8b
[8] = chewing gum, 800 mg/day, course: 1a 16 days, 2b 20, 7b 20, 8a 1, 9a 5 days
[9] = chewing gum, 900 mg/day, 12 days, subject 2a
[10] = chewing gum, 1200 mg/day, 8 days, subject 4a
[11] = chewing gum, 1500 mg/day, 25 days, subject 3a
[12] = tablets, 1000 mg/day, 15 days, subject 11a
[13] = tablets, 1200 mg/day, 10 days, subject 10a

## CCc1occc(=O)c1O [ethyl maltol, 3-hydroxy-2-ethyl-4-pyrone]
[1]
  safe average daily intake: 2 mg per kg
[2]
  hexobarbital-induced sleeping time: potentiating hexobarbital-induced sleeping time
mice
  acute LD50: 910 mg per kg
[3]
  dissolution time in the mouth from gum: about 30 minutes
Rat brain cortex slices
  oxygen intake by rat brain cortex slices: not affected
Smoking habit of smokers; chewing gum over ten to fifteen minutes versus tablet
  threshold dose, chewing gum versus tablet: somewhat lower
Smoking habit of smokers; single dose greater than 300 mg
  reaction to cigarettes: immediate overt negative reaction to cigarettes
Smoking habit of smokers; single dose greater than 500 mg
  duration of substantially reduced level of smoking: a few hours to two days
Smoking habit of smokers; single dose greater than 500 mg, substantially all individuals
  desire to smoke cigarettes: a definitive result of reduced desire to smoke cigarettes
Smoking habit of smokers; single dose greater than 1,200 mg
  effect of dose greater than 1,200 mg: no addition advantage
Smoking habit of smokers; single dose of less than 300 mg
  effect on smoking: no definitive effect
Smoking habit of smokers; single dose up to about 1,200 mg
  effect of increasing dose: Increased effectiveness
Smoking habit of smokers; single dose, some subjects
  physiological symptoms of nicotine withdrawal: For some subjects, physiological symptoms of nicotine withdrawal were noted
[4]; chewing gum, 600 mg/day, 1 day, subject 6a, for following 2 wks.
  Cigarette Consumption per day at end (in words): Reduced to 1/2 pack for following
[4]; [7]
  Change in Smoking Pattern per cig.: Less than 1/2
  Cigarette Consumption per day at end: 7 cigarettes per day
  Percentage Reduction: 40-50%
[4]; chewing gum, 700 mg/day, course: 2c 30 days, 3b 8, 5a 14, 7c 40 days
  Change in Smoking Pattern per cig.: Approx. 1/2; also recorded: Varied; also recorded: Less than 3/4; also recorded: Reduced to 2-3 puffs
[4]; [8]
  Change in Smoking Pattern per cig.: Approx. 1/2; also recorded: Less than 1/2; also recorded: Less than 3/4; also recorded: Reduced to light-up
  Percentage Reduction: 70-80% and 41-68% and 75% and 75-80% and 70%
[4]; [9]
  Cigarette Consumption per day at end: 0 cigarettes per day
  Percentage Reduction: 100%
[4]; chewing gum, 1000 mg/day, course: 4b 4 days, 7a 7, 12a 8 days
  Change in Smoking Pattern per cig.: Less than 1/2; also recorded: Reduced to 3-4 puffs
[4]; [10]
  Cigarette Consumption per day at end: 0 cigarettes per day
  Percentage Reduction: 100%
[4]; [11]
  Cigarette Consumption per day at end: 0 cigarettes per day
  Percentage Reduction: 100%
[4]; non-habit smoker 13a, chewing gum, 1000 mg/day, 2 days
  Smoking during dose course (in words): Not able to finish cigarette
[4]; tablet form, subjects 10 and 11, retention in the mouth not ruled out
  effectiveness of systemic administration: partially effective
[4]; [12]
  Change in Smoking Pattern per cig.: Less than 3/4
  Cigarette Consumption per day at end: 17-18 cigarettes per day
  Percentage Reduction: 40-43%
[4]; [13]
  Change in Smoking Pattern per cig.: Reduced to 3-4 puffs
  Cigarette Consumption per day at end: 10-12 cigarettes per day
  Percentage Reduction: 70-75%
[5]
  convulsions produced by pentylenetetrazole or strychnine: inhibited convulsions
non-smoker volunteers
  psychological or physiological effects: no psychological or physiological effects
[6]; after oral administration
  absorption: rapidly absorbed
  excretion: rapidly excreted
  form of excretion: primarily as glucuronide and ethereal sulfate conjugates
[6]; in vivo
  metabolism and excretion: rapidly metabolized and excreted
